Where “and” joins values, the source holds several entries; their conditions need not be identical. Equal values may be shown once.
Assays:
[1] = pKa* of aqua adducts of the complexes; type: physicochemical; conditions: pKa value determined in deuterated solvent
Excerpt: Table 1 pKa* values for aqua adducts of catalysts 1–4 (and 8 for comparison) and turnover frequencies for transfer hydrogenation of NAD^+ using formate. | column: pKa*

[2] = Transfer hydrogenation of NAD+ to 1,4-NADH with formate, followed by 1H NMR
Protocol: Complexes 1–7 were dissolved in MeOH-d4/D2O (5:1 v/v, 1.4 mM, 4 ml). Solutions of sodium formate (35 mM, 4 ml) and NAD^+ in D2O (2.8 mM, 2 ml) were also prepared and incubated at 310 K. In a typical experiment, 200-μl aliquots of each solution were added to a 5-mm NMR tube and the pH* adjusted to 7.2±0.1 (total volume 0.635 ml, final concentrations: Ru complex 0.44 mM; NAD^+ 0.88 mM; formate 11.02 mM; molar ratio 1:2:25). ^1H NMR spectra were recorded at 310 K every 162 s until the completion of the reaction.
Molar ratios of NAD^+ and NADH were determined by integrating the peaks at 9.33 and 6.96 p.p.m. (NAD^+ and 1,4-NADH, respectively). The turnover number for the reaction was calculated as follows: […]
where In is the integral of the signal at n p.p.m. and [NAD^+]0 is the concentration of NAD^+ at the start of the reaction.

[3] = system: A2780 human ovarian cancer cells; experiment: In vitro growth inhibition assay (SRB), A2780; type: cell-based
Protocol: A2780 human ovarian carcinoma and MRC5 human fetal lung fibroblasts were obtained from the European Collection of Cell Cultures. Both cell lines were grown in Roswell Park Memorial Institute medium (RPMI-1640) supplemented with 10% of fetal calf serum, 1% of 2 mM glutamine and 1% penicillin/streptomycin. All cells were grown as adherent monolayers at 310 K in a 5% CO2-humidified atmosphere and passaged at ca. 70–80% confluency.
The antiproliferative activity of complexes 1–8 was determined in A2780 ovarian cancer cells and MRC5 fibroblasts. Briefly, 96-well plates were used to seed 5,000 cells per well. The plates were left to pre-incubate with drug-free medium at 310 K for 48 h before adding different concentrations of the compounds to be tested. A drug exposure period of 24 h was allowed. After this, supernatants were removed by suction and each well was washed with PBS. A further 72 h were allowed for the cells to recover in drug-free medium at 310 K. The sulforhodamine B (SRB) assay was used to determine cell viability. IC50 values, as the concentration that causes 50% cell death, were determined as duplicates of triplicates in two independent sets of experiments and their s.d. were calculated.

9-ethylguanine = experiment: Binding to model nucleobase 9-ethylguanine by 1H NMR; conditions: D2O, pH* 7.2 ± 0.1, 310 K
Protocol: Supplementary Table 4: Binding constants for formation of 9-EtG adducts of complexes 1-4 determined by 1H NMR. The experiments were performed in D2O, pH* 7.2 ± 0.1 and 310 K. Equilibrium was reached by the time the first 1H NMR spectrum was recorded (< 10 min). […]
DNA is believed to be the main target for [(bip)Ru(en)Cl]+ (8). Due to the structural similarity of the complexes 1-5 with complex 8, their binding to DNA was […]
Interaction with nucleobases
Initially, model nucleobases, 9-ethylguanine and 9-methyladenine were reacted with complexes 1-4 in D2O, 310 K and pH* 7.2 ± 0.1. The binding of the complexes to 9-EtG or 9-MeA was monitored by 1H-NMR spectroscopy. Peaks for the 9-EtG adducts were observed by the time the first spectrum was recorded (< 5 min after mixing), […]
equilibrium was reached rapidly. The binding constants for formation of 9-EtG adducts determined by NMR were between 60 and 106 mM-1 (Supplementary Table 4). These values are in the same range as that from the ethylenediamine complex [(bip)Ru(en)Cl]+ (K9-EtG= 60.3 mM-1),2 which also binds strongly to DNA.3, 4 The high resolution mass spectrum confirmed the formation of [(η6-arene)Ru(XEn)(9-EtG)]+ (Supplementary Table 5). The interaction of complexes 1-4 with 9-MeA was also investigated, but no reaction was detected by 1H-NMR.
It is well established that N7 of guanine is the preferred nucleotide binding site for many transition metals ions. 2-8 Furthermore, strong and selective binding to N7 of 9-EtG, has been observed for [(η6-arene)Ru(en)Cl]+.3, 4 A pH* titration of […]

[4] = system: A2780 ovarian cancer cells; experiment: Cell viability on co-administration of Ru complexes (1/3 x IC50) with formate or acetate; type: cell-based, human; conditions: for Cell viability / Cell viability percentages: A2780, complex 1/3 x IC50, 24 h
Protocol: Cell viability assays were carried out with complexes 1–8 in A2780 ovarian cancer cells. These experiments were carried out as described above with the following modifications: a fixed concentration of each Ru complex equal to 1/3 × IC50 was used in co-administration with three different concentrations of sodium formate or sodium acetate (0.5, 1.0 and 2.0 mM). To prepare the stock solution of the drug, the complex was dissolved in 5% dimethylsulfoxide and diluted in a 1:1 mixture of 0.9% saline:cell culture medium. This stock was further diluted using RPMI-1640 until working concentrations were achieved. Separately, stock solutions of sodium formate or sodium acetate were prepared in saline. The complex and formate were added to each well independently, but within 5 min of each other.
Supplementary Table 7: Percent cell viability of A2780 ovarian cancer cells exposed to equipotent concentrations of ruthenium complexes 1-3 and 5-8 (1/3 x […]
The experiments included 48 h of pre-incubation and 72 h of drug recovery, both in drug-free medium at 310 K in a 5% CO2 humidified atmosphere. All the experiments were performed as duplicates of triplicates in independent experiments and the error bars were calculated as the standard deviation from the mean.
Supplementary Table 11: Cell viability (%) of A2780 ovarian cancer cells exposed […]
administered with different concentrations of sodium acetate (0, 0.5, 1 and 2 mM).
The experiments involved 48 h of pre-incubation and 72 h of drug recovery, both in […]
Cell viability percentages (%)
Complex Acetate concentration (mM)

[5] = system: A2780 ovarian cancer cells; experiment: Ruthenium accumulation in cancer cells (ICP-MS); type: cell-based, human; conditions: for Cell Ru: A2780, 1/3 x IC50, 24 h drug exposure, no recovery time; for Cell accum.: A2780, 24 h, 1/3 x IC50
Protocol: Briefly, 1.5 × 10^6 cells per well were seeded on a six-well plate. […] After this time, cells were washed, treated with trypsin-EDTA, counted and cell pellets were collected. Each pellet was digested overnight in concentrated nitric acid (73%) at 353 K; the resulting solutions were diluted using double-distilled water to give a final concentration of 5% HNO3 and the amount of Ru taken up by the cells was determined by ICP–MS. […]
Supplementary Table 3: Antiproliferative activity of complexes 1-8 in A2780 ovarian cancer cells and their cellular accumulation (expressed as ng Ru per million cells).
The latter experiments were carried out using equipotent concentrations of the […]
experiments were performed as duplicates of triplicates in independent experiments and the error bars were calculated as the standard deviation from the mean. […]

calf thymus DNA = experiment: Interaction with calf thymus DNA (ethanol precipitation, ICP-MS of Ru); type: binding; conditions: for free Ru in supernatant: CT-DNA, 1:3 complex:base pairs, 310 K
Protocol: Interaction with calf thymus DNA
Complex 2 was chosen as representative of the series. A stock solution of complex 2 (0.7 mM in 5 % acetonitrile/water) was prepared and aliquots of 66 μL were added to a solution of CT-DNA (final ratio 1:3 complex: base pairs-DNA) in water, 2 mM cacodylate buffer and 2 mM NaCl. The reaction mixture was incubated at 310 K, and aliquots of 300 μL were taken at different intervals during a period of 27 h. The DNA was then precipitated by addition of ethanol (700 μL, final concentration 70% v/v). Ru complexes which are strongly bound to CT-DNA will precipitate together with the DNA upon addition of ethanol, and, therefore the ruthenium concentration in the supernatant should decrease. However, no changes in the Ru concentration were detected by ICP-MS showing that the interaction between the complex 2 and DNA is weak (t = 0 h / 64.2 ± 0.7 µM, t = 24 h/ 65.1 ± 0 .3 µM free Ru). In contrast complex 8

CT-DNA = experiment: Thermal stability (melting temperature) of CT-DNA by UV-Vis; type: binding, calf; conditions: for Tm: CT-DNA, 1:3 complex:base pairs, 2 mM cacodylate pH 7.4, 2 h 310 K
Protocol: Supplementary Table 6: Melting temperature (Tm) of CT-DNA in the presence of 8 or complex 2 (ratio 1:3, complex: base pairs-DNA). The reactions were carried out in cacodylate buffer (2 mM, pH 7.4), and samples incubated for 2 h at 310 K. […]
a variation in melting temperature between free DNA and DNA in the presence of the corresponding complex. * […] from free DNA using a T-test analysis. ** p < 0.01 from free DNA using a T-test analysis […]
Thermal stability of CT-DNA
The melting temperature of CT-DNA in the presence and absence of complex 2 [(p-cym)Ru(TsEn)Cl] was determined by UV-Vis spectroscopy (Supplementary Table 6). Higher melting temperatures indicate increased stabilization of the DNA, which is the effect produced by DNA-intercalators and often by direct metal coordination to […]
the nucleobases.11 Destabilization of DNA can result in a decrease of the melting […]
In the presence of complex 8, the melting temperature of CT-DNA increased In agreement with the literature, 12 by 14 K, in 2 mM NaCl, 2 mM cacodylate buffer.
This increase is due to Ru binding to DNA as well as intercalation. 12 However, upon increasing the chloride concentration by ca. 10x (20 mM NaCl) the melting temperature of CT-DNA in the presence of complex 8, increased only by 7 K. This effect has previously been reported and it is attributed to the partial inhibition of hydrolysis, and, therefore, inhibition of coordination to DNA. 12, 13
Experiments performed in the presence of complex 2, in 2 mM cacodylate buffer and […]
NaCl, no decrease of the melting temperature was observed. […]

[6] = A2780, 24 h drug exposure, no formate

Row | SMILES | IC50 ([3]; A2780, Supplementary Table 3) [µM] | Cell viability ([4]; formate 0 mM) [%] | Cell viability ([4]; formate 0.5 mM) [%] | Cell viability ([4]; formate 1 mM) [%] | Cell viability ([4]; formate 2 mM) | Cell Ru [5] [ng x 106 cells] | further results
1 | Cc1ccc(C(C)C)cc1.NCC[N-]S(=O)(=O)c1ccc([N+](=O)[O-])cc1.[Cl-].[Ru+2] [Complex 4, [(p-cym)Ru(NO2En)Cl]] | 14.7 ± 0.6 | – | – | – | – | – | pKa* [1]: 9.56±0.04; time for completion of the catalytic reaction ([2]; 6 mol equiv of NAD+): 20.5 min; TOF D2O/MeOH-d4 ([2]; 23% MeOH-d4/77% D2O, NAD+ 2 mol equiv, formate 25 mol equiv, 310 K, pH* 7.2): 9.6 ± 0.3 h⁻¹; TOF D2O ([2]; D2O, NAD+ 2 mol equiv, formate 25 mol equiv, 310 K, pH* 7.2): 4.1 ± 0.1 h⁻¹; Binding constant for formation of 9-EtG adducts (9-ethylguanine): 92.8 ± 1.0 mM⁻¹
2 | CS(=O)(=O)[N-]CCN.[Cl-].[Ru+2].c1ccc(-c2ccccc2-c2ccccc2)cc1 [Complex 5, [(o-terp)Ru(MsEn)Cl]] | 12.4 ± 0.9 | 73.59 ± 0.04 | 71.9 ± 0.4 | 44.2 ± 0.2 | 5.8 ± 0.6% | 2.8 ± 0.3 | Cell accum. [5]: 2.8 ng Ru/10^6 cells
3 | Cc1ccc(S(=O)(=O)[N-]CCN)cc1.[Cl-].[Ru+2].c1ccc(-c2ccccc2-c2ccccc2)cc1 [Complex 6, [(o-terp)Ru(TsEn)Cl]] | 15.8 ± 0.8 | 72.8 ± 0.9 | 59 ± 3 | 43.6 ± 1.4 | 22.2 ± 0.8% | 2.1 ± 0.4 | –
4 | NCC[N-]S(=O)(=O)c1ccc(C(F)(F)F)cc1.[Cl-].[Ru+2].c1ccc(-c2ccccc2-c2ccccc2)cc1 [Complex 7, [(o-terp)Ru(TfEn)Cl]] | 21.2 ± 0.1 | 40 ± 2 | 20.8 ± 0.6 | 11.9 ± 0.6 | 2.5 ± 0.7% | 2.4 ± 0.3 | decrease in cell survival ([4]; A2780, formate increased from 0 to 2 mM): ca. 16 fold; Cell accum. [5]: 2.4 ng Ru/10^6 cells
5 | NCCN.[Cl-].[Ru+2].c1ccc(-c2ccccc2)cc1 [Complex 8, [(bip)Ru(en)Cl]^+, reference compound] | 2.17 ± 0.08 | – | 71 ± 1 | 61 ± 1 | 39 ± 1% and ~39% | – | IC50 [3, 6]: 2.2 µM; Cell viability percentages ([4]; acetate 0 mM): 75.4 ± 2%; Cell viability percentages ([4]; acetate 0.5 mM): 73.1 ± 0.8%; Cell viability percentages ([4]; acetate 1 mM): 72 ± 1%; free Ru in supernatant (calf thymus DNA; t = 0 h): 58.3 ± 0.3 µM; free Ru in supernatant (calf thymus DNA; t = 24 h): 48.5 ± 0.6 µM; binding to calf thymus DNA (calf thymus DNA; ICP-MS of Ru, up to 27 h at 310 K, 1:3 complex:DNA base pairs, 2 mM cacodylate pH 7.4, 2 mM NaCl): bind strongly; increase of melting temperature of CT-DNA (CT-DNA; 2 mM NaCl, 2 mM cacodylate buffer): -259 °C; increase of melting temperature of CT-DNA (CT-DNA; 20 mM NaCl): -266 °C; Tm (CT-DNA; 2 mM NaCl): 63.8 ± 0.8 °C; Tm (CT-DNA; 20 mM NaCl): 67.1 ± 0.6 °C; ΔTm (CT-DNA; versus free DNA, 20 mM NaCl): 7.9 °C
6 | N.N.[Cl][Pt][Cl] [cisplatin, reference compound] | – | – | – | – | – | – | IC50 [3, 6]: 1.2 µM
7 | O=C[O-].[Na+] [formate, sodium formate] | – | – | – | – | – | – | toxicity of formate itself to the cells ([4]; A2780, 0 to 2 mM): non-toxic

Source: publication PMC4383003, “Transfer hydrogenation catalysis in cells as a new approach to anticancer drug design” (Nature Communications, 2015)
